Measurements taken from US20170112792A1, “ENHANCED ATRA-RELATED COMPOUNDS DERIVED FROM STRUCTURE-ACTIVITY RELATIONSHIPS AND MODELING FOR INHIBITING PIN1” (Beth Israel Deaconess Medical Center, Inc., priority 2014, published 2017).
“Also recorded” adds a separate entry of the source. Non-standard residues stand in square brackets, D forms with d. No end group written: not given here. d(pT) = C[C@H](OP(=O)(O)O)[C@@H](N)C(=O)O; Pip = O=C(O)[C@@H]1CCCCN1

Tests used:
GST-cyclophilin = assay: chymotrypsin coupled PPlase activity assay, cyclophilin
GST-Pin1 [1] = target: T1, GST-Pin1 (Homo sapiens, UniProt Q13526); assay: fluorescence polarization (FP) pTide competition assay / FP-HTS
T1 sequence (Q13526 whole entry): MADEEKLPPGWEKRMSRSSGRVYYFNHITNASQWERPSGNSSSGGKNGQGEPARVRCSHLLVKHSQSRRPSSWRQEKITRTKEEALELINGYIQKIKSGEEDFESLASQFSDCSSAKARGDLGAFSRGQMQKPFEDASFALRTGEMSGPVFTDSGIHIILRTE
Source text: This sequence was optimized for solubility and binding to GST-PPI. […] Measurements of fluorescence polarization and fluorescence absorbance were made in black 384-well plates (Corning) using a Synergy II plate reader. Compounds were transferred to plates using a custom-built Seiko pin-transfer robot at the Institute for Chemistry and Cell Biology at Harvard Medical School. The assay can tolerate up to 10%/o DMSO.
Molecules that compete with pTide for binding to the active site, e.g., Pin1 substrates, were detected under equilibrium conditions. A Z score was used to identify and rank those molecules that were most competitive with pTide (e.g., that have higher binding affinity). A Z score is defined as Z=(x−μ)/σ, where x is a raw score, μ is the mean of the population, and σ is the standard deviation of the population. Molecules with the most negative Z scores represent those with the highest Pin1 binding affinity. The Z′ value for this assay was around 0.70 and was consistent for day-to-day performance, with a coefficient of variation in the range of 4-5%.
A lower value of Ki is indicative of higher association and, accordingly, higher affinity of the substrate to the protein.

GST-FKBP12 = GST-FKBP12 (Homo sapiens, UniProt P62942); assay: chymotrypsin coupled PPlase activity assay, FKBP12; assay type: biochemical
Chain of GST-FKBP12 (P62942 whole entry): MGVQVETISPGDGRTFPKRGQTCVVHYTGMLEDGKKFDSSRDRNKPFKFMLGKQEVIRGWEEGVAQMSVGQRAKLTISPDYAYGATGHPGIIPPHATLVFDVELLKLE

GST-Pin1 [2] = target: T1, GST-Pin1; assay: chymotrypsin coupled PPlase activity assay, Pin1; assay type: biochemical
Source text: where Km is the Michaelis constant for the used substrate, S is the initial concentration of the substrate in the assay, and the IC50 value is of the inhibitor.

[3] = test system: vector control or Rab2A-overexpressing HMLEs; assay: BFA treatment of HMLE cells (ERGIC53 staining, Erk1/2 blots); assay type: cell-based, human; settings: 10 μg/ml BFA
Source text: To elucidate how Rab2A overexpression or its Q58H mutation activates Erk1/2, we first examined whether Rab2A co-localized with Erk1/2. HMLE cells were starved and then stimulated by EGF to induce Erk1/2 phosphorylation. […] Overexpressing Rab2A Q58H at levels similar to the endogenous level also activated and colocalized with Erk1/2 like overexpressing WT Rab2A at 3 times higher levels (FIGS. 45A and 46A). To determine where Rab2A or its Q58H mutant colocalized with Erk1/2 at the perinuclear region, we performed double immunostaining Rab2A and ERGIC53, an ER-Golgi intermediate compartment (ERGIC) marker. Both Rab2A and its Q58H mutant colocalized with Erk1/2 at the ERGIC (FIG. 45B). Thus, overexpressed Rab2A or its Q58H mutant co-localizes with Erk1/2 and promotes Erk1/2 activation at the ERGIC. To examine whether Rab2A's vesicular trafficking function is associated with Erk activation, we used brefeldin A (BFA) to block the trafficking from the ERGIC to ER because BFA dissociates ADP ribosylation factor (ARF) effectors from Golgi and ERGIC membranes, leading to block in both anterograde and retrograde transport.

NB4 cells = assay: APL cell differentiation in NB4 cells (Giemsa, FACS CD14/CD11b); assay type: cell-based, human; settings: 72 hours
[4] = test system: APL cells isolated from hCG-PML-RARα transgenic mice
[5] = test system: Pin1 and PML-RARα in NB4 cells; assay: immunoblot of Pin1 and PML-RARα in APL NB4 cells; assay type: cell-based, human; settings: for PML-RARα level in APL cells: 72 hours
Experimental: For immunoprecipitation and immunoblotting in the examples below, cells were polyethylenimine (PEI)- or lipofemamine-transfected with 8 μg of various plasmids, incubated in 10 cm dishes for 24 hours, and subsequently treatment with drugs as needed. […] After centrifugation at 13,000 g for 10 minutes, one tenth of the supernatant was stored as input, and the remainder was incubated 12 hours with M2 Flag agarose (Sigma). After brief centrifugation, immunoprecipitates were collected, extensively washed with the aforementioned lysis buffer twice, suspended in 2×SDS sample buffer (100 mM Tris-HCl, pH 6.8, 4% SDS, 5% β-mercaptoethanol, 20% glycerol, and 0.1% bromphenol blue), boiled for 10 minutes, and subjected to immunoblotting analysis. […] After electrophoresis, gel was transferred to nitrocellulose membranes using a semidry transfer cell. The transblotted membrane was washed twice with Tris-buffered saline containing 0.1% Tween 20 (TBST). After blocking with TBST containing 5% bovine serum albumin (BSA) for 1 hour, the membrane was incubated with the appropriate primary antibody (diluted 1:1000) in 2% BSA-containing TBST at 4° C. overnight. After incubation with the primary antibody, the membrane was washed three times with TBST for a total of 30 minutes followed by incubation with horseradish peroxidase (HRP)-conjugated goat anti-rabbit or anti-mouse IgG (diluted 1:2500) for 1 hour at room temperature. After three extensive washes with TBST for a total of 30 minutes, the immunoblots were visualized by enhanced chemiluminescence.

human APL NB4 cells = assay: NB4 cell growth; assay type: cell-based; settings: co-treatment with ATRA
Experimental: (§1) Absorbance was determined at 570 nm.

RAR = assay: transactivation of RAR downstream target genes
[6] = test system: human normal and breast cancer cell lines; assay: cell growth of human normal and breast cancer cell lines; assay type: cell-based
Experimental: as §1
To test this possibility, we chose breast cancer as a model due to the substantial oncogenic role of Pin1 in vitro and in vivo.

[7] = cited from earlier work

CC1=C(/C=C/C(C)=C/C=C/C(C)=C\C(=O)O)C(C)(C)CCC1 [13cRA, (2Z,4E,6E,8E)-3,7-dimethyl-9-(2,6,6-trimethylcyclohexen-1-yl)nona-2,4,6,8-tetraenoic acid]
inhibition of cyclophilin (GST-cyclophilin): did not inhibit | Ki (GST-Pin1 [1]): 1160 nM | binding to Pin1 in FP assay after longer incubation (GST-Pin1 [1]; 24 hours incubation vs 0.5 hours): difference in binding between 13cRA and ATRA disappears after a longer incubation | Z score in FP-HTS (GST-Pin1 [1]; ~8200 compounds screened, competition with pTide): lowest Z score | inhibition of FKBP12 (GST-FKBP12): did not inhibit | inhibition of PPlase activity of Pin1 (GST-Pin1 [2]): fully inhibited | Ki (GST-Pin1 [2]; Cheng-Prusoff equation, read-out: Ki from PPlase assay): 2370 nM

C[C@H]1CCC/C=C/[C@@H]2C[C@H](O)C[C@H]2[C@H](O)/C=C/C(=O)O1 [BFA, brefeldin A]
Erk phosphorylation [3]: did not obviously affect Erk phosphorylation | ERGIC structure (ERGIC53 staining) ([3]; 30 min): ERGIC structures were damaged

O=C(O[C@@H]1Cc2c(O)cc(O)cc2O[C@@H]1c1cc(O)c(O)c(O)c1)c1cc(O)c(O)c(O)c1 [EGCG]
APL cell differentiation (NB4 cells): neither Pin1 inhibitors nor Pin1 KD induced APL cell differentiation | condition of treated mice (toxic effects) ([4]; mouse, in vivo): rather sick | PML-RARα in the bone marrow ([4]; same regimens): effectively reduced PML-RARα | spleen weights ([4]; same regimens): nearly at basal levels | Pin1 degradation in NB4 cells [5]: inhibited Pin1 without degrading it | PML-RARα level in APL cells [5]: dose-dependently reduced PML-RARα

CCOC(=O)CN1C(=O)c2ccc3c4c(ccc(c24)C1=O)C(=O)N(CC(=O)OCC)C3=O [PiB]
APL cell differentiation (NB4 cells): neither Pin1 inhibitors nor Pin1 KD induced APL cell differentiation | Pin1 degradation in NB4 cells [5]: inhibited Pin1 without degrading it | PML-RARα level in APL cells [5]: dose-dependently reduced PML-RARα

CCCCCCCOc1cc2c(cc1/C(C)=C/c1ccc(C(=O)O)cc1)C(C)(C)CCS2(=O)=O [Ro-415253]
rescue of NB4 cell proliferation suppressed by ATRA (human APL NB4 cells): unable to rescue NB4 cell proliferation suppressed by ATRA | transactivation of RAR downstream target genes (RAR): suppresses it | effect on the ability of ATRA to induce Pin1 degradation or inhibit cell growth ([6]; breast cancer cells (T47D)): no obvious effects | Pin1 binding in FP assay (GST-Pin1 [1]): minimal Pin1 binding | restoration of ATRA-mediated Pin1 degradation ([5]; co-treatment with ATRA): unable to restore ATRA-mediated Pin1 degradation

COc1cc(C)c(/C=C/C(C)=C/C=C/C(C)=C/C(=O)O)c(C)c1C [acitretin]
Pin1 binding in FP assay (GST-Pin1 [1]): moderate binding

C=C(c1ccc(C(=O)O)cc1)c1cc2c(cc1C)C(C)(C)CCC2(C)C [bexarotene]
Pin1 binding in FP assay (GST-Pin1 [1]): marginal binding; also recorded: less potent than ATRA

CC1=C(/C=C/C(C)=C/C=C/C(C)=C/C(=O)Nc2ccc(O)cc2)C(C)(C)CCC1 [fenretinide]
Pin1 binding in FP assay (GST-Pin1 [1]): less potent than ATRA

O=C(O)Cc1c[nH]c2ccccc12 [indo-3-acetic acid]
Pin1 binding in FP assay (GST-Pin1 [1]): neither pravastatin nor indo-3-acetic acid demonstrated any binding

Clc1cccc(C(c2ccc3[nH]cnc3c2)n2ccnc2)c1 (stereo not shown) [liarazole]
combination effect with ATRA on inhibition of cell proliferation ([6]; AU565 or SKBR3 cells): generally additive effects with ATRA

CC1=C(/C=C/C(C)=C/C=C/C(C)=C/C=O)C(C)(C)CCC1 [retinal]
Pin1 binding in FP assay (GST-Pin1 [1]): totally inactive

CC1=C(/C=C/C(C)=C/C=C/C(C)=C/CO)C(C)(C)CCC1 [retinol]
Pin1 binding in FP assay (GST-Pin1 [1]): totally inactive

CC(=O)OC/C=C(C)/C=C/C=C(C)/C=C/C1=C(C)CCCC1(C)C [retinyl acetate]
Pin1 binding in FP assay (GST-Pin1 [1]): totally inactive

CC1(C)CCC(C)(C)c2cc(NC(=O)c3ccc(C(=O)O)cc3)ccc21 [tamibarotene]
Pin1 binding in FP assay (GST-Pin1 [1]): moderate binding

Bth-D-phos.Thr-Pip-Nal ([Bth][d(pT)][Pip][Nal]) [pTide]
binding selectivity (GST-Pin1 [1]; Pin1 PPlase domain vs WW domain vs FKBP12): selectively binds Pin1 at its PPlase domain and does not bind to the WW domain of Pin1 or to FKBP12 | cell permeability [7]: low cell permeability
